Values of other authors, collected in US9418186B2, “Assessment of solute partitioning in crude oils” (EXXONMOBIL RESEARCH AND ENGINEERING COMPANY, priority 2012, dated 2016).
“And” between values parts separate entries of the source, which are not always exact repeats. Equal entries are not always repeated. Where two headings read alike, the source gives them in different places.

Assays:
[1] = North Sea crude oil / water
[2] = chloroform / water
[3] = Miller (North Sea) crude oil / water
[4] = not given; remark: listed apart in the source

solubility in water [4] [gmol/m^3]	SMILES	literature value for the partition coefficient in octanol-water	log K in octanol-water (literature)	experimental partition coefficient [1]	experimental value for the log of the partition coefficient [1]	experimental partition coefficient [2]	experimental value for the log of the partition coefficient [2]	experimental partition coefficient [3]	experimental value for the log of the partition coefficient [3]
–	S [H2S]	27.5	1.44	4.09	0.612	–	–	–	–
–	Oc1ccccc1 [phenol]	28.8	1.45	–	–	0.74	−0.13	1.72	0.238 and 0.24
40353	O=C1CCCCCN1 [caprolactam]	–	–	–	–	0.74	−0.131	–	–
